Results published in patent US5496697A, “Methods and apparatus for detecting the effect of cell affecting agents on living cells” (priority 1993, dated 1996).
Read-outs that look alike come from different tables or passages of the source.

What was measured:
[1] = cited from earlier work
[2] = test system: murine macrophage-like line P388D1; assay: acidification rate of P388D1 cells trapped in etched wells; type: cell-based
Description: For many types of mammalian cells, a confluent monolayer (equivalent to about 10^7 cells/mL) commonly produces acidification rates within a factor of two of 100 μV/s. At 59 mV per pH and medium buffer capacity of 1 mM, this corresponds to a calculated net rate of H+ production of ~1·10^8 /s for a typical cell. The metabolic sources of these protons depend on the nutrients in the culture medium and the metabolic pathways that are active in the cells. Some insight into this can be gained using auxiliary biochemical measurements and specific metabolic poisons.
It is reversible, with a recovery time of about 20 min. after the removal of the uncoupler. Dose-response experiments show a maximum stimulation of the acidification rate near 2-5 μM CCCP, Presumably the mechanism is a combination of increased CO2 production and the stimulation of glycolysis to maintain homeostasis.

[3] = test system: normal human keratinocytes; assay: metabolic rate of normal human keratinocytes exposed to irritants in the micro flow chamber (silicon sensor); type: cell-based; conditions: for IC50: Homo sapiens, Keratinocyte, read-out: -log10 (MRD50) (converted)
MDCK cells [4] = assay: metabolic rate of MDCK cells exposed to MgCl; type: cell-based, canine; conditions: 10 mM MgCl
PGE1 receptor = assay: metabolic rate of M1C-2 cells stimulated through the PGE1 receptor; type: cell-based, mouse; conditions: PGE1, FIG. 27
MDCK cells [5] = assay: metabolic rate of MDCK cells grown on the silicon sensor surface; type: cell-based, canine
MDCK cells [6] = assay: metabolic rate of MDCK cells grown on a cover slip; type: cell-based, canine; conditions: for inhibition at 10000 µM: 10 mM theophylline
MDCK cells [7] = assay: steady-state potential of MDCK cells grown on the silicon sensor surface; type: cell-based, canine
Excerpt: It contains information on the pH of the small aqueous compartment between the cells and the sensor, and it contains information about trans-cellularpotentials, which are essentially batteries in series with the electronic circuit of the sensor.
The steadystate potential reported by the sensor (with fluid flow on) decreased gradually from the time the sensor was activated until the PMA was introduced. […] This signal is a composite of the trans-cellular potential and the sub-cellular pH (changes in the latter corresponding to 59 mV per pH unit).

MES-SA [8] = conditions: previously characterized; cited from earlier work
Dx5 = assay: cytotoxicity in Dx5 in the silicon microphysiometer; conditions: for time at which cytotoxicity is manifest: 100 μM, Dx5
MES-SA [9] = assay: cytotoxicity in MES-SA in the silicon microphysiometer
MDCK cells [10] = assay: cells; conditions: Canis lupus familiaris
Description: MDCK cells in a confluent T-75 flask were trypsinized in order to remove them from their growth container. The cells were centrifuged at 2000 RPM for 5 minutes and the supernatant was discarded. The cells were resuspended in 5 mL of medium and centrifuged for 5 minutes at 3000 RPM. […] The cells were centrifuged for 3 minutes at 3000 RPM to pellet the cells. A 2 μL aliquot was taken directly from the cell pellet and spread over an approximate area of 40 mm^2 on the silicon sensor surface (in a partially assembled chamber).

Proteus mirabilis = type: cell-based; conditions: carbon source in medium; FIG. 22
Excerpt: While this method of serial delivery of selective substrates has certain potential advantages, parallel delivery of selective substrates to separate catches of bacteria could also be useful under certain circumstances. Furthermore, if bacteria are used for screening for antibiotic susceptibility or antibiotic activity, parallel delivery to separate catches may well be more appropriate because of potential problems of intereactions of drugs.
The bacteria, E. coli and Proteus mirabilis , were prepared as suspensions of about 5×10^8 cells/mL in a growth medium and then diluted into a sterile test medium containing glucose (Bactopeptone, 2 g/L; NACl, 5 g/L; K2 HPO4, 1.7 mM; glucose, 1 g/L; pH 7.3 ). With the controlling electrode piston in the raised position, as disclosed in pending U.S. patent application, Ser. No. 876,925, filed Jun. 20, 1986, now U.S. Pat. No. 5,292,846 one mL of bacterial suspension containing a known number of bacteria was flowed through the device such that the cells were retained adjacent to the silicon sensor surface by a Nucleopore membrane situated parallel to the surface. The cells were pulsed with the same glucose containing test medium, the piston was then lowered to decrease the volume surrounding the cells, and the change in pH due to bacterial metabolism was monitored. […] After lowering the piston the pH change was again monitored. […]

E. coli = assay: response of E. coli to antibiotics in the flow cell; type: cell-based; conditions: FIG. 24
L cells [11] = test system: L cells
L cells [12] = assay: cells; conditions: Mus musculus, 8 min, read-out: peak metabolic activity
[13] = classification by in vivo tests such as the Draize test
[14] = concentrations necessary to depress metabolism of keratinocytes

## CC(C)=O [Acetone]
[1]; [13]
  In-Vivo Irritancy: Moderate-mild

## N#CC(C#N)=NNc1cccc(Cl)c1 [CCCP, carbonylcyanide chlorophenylhydrazone]
[2]; 20 μmM CCCP
  recovery time after removal of the uncoupler: about 20 min.
[2]; 20 μmM CCCP, FIG. 42
  stimulation of acidification rate: prompt, faster than the resolution of the apparatus
[2]; dose-response experiments
  concentration of maximum stimulation of the acidification rate: 2 to 5 µM

## C[S+](C)[O-] [Dimethyl sulfoxide]
[3]; separate test, FIG. 13
  recovery of metabolic rate after washout of irritant: recover from DMSO but not from ethanol was shown
[1]; in vivo
  In-Vivo Irritancy: Mild

## CCO [Ethanol]
[3]; FIG. 12
  recovery of metabolic rate after washout of irritant: substantial recovery
[3]; separate test, FIG. 13
  recovery of metabolic rate after washout of irritant: not from ethanol
[1]; [13]
  In-Vivo Irritancy: Moderate-mild

## CO [Methanol]
[1]; [13]
  In-Vivo Irritancy: Moderate-mild

## [Cl-].[Cl-].[Mg+2] [MgCl, magnesium chloride]
MDCK cells [4]
  increase in metabolic rate vs. medium only: 40-46%

## CCCCCCCCCCCCOS(=O)(=O)[O-].[Na+] [Na dodecyl sulfate, sodium dodecyl sulfate]
[3]
  IC50: 0.126 mM
[1]; [13]
  In-Vivo Irritancy: Severe-moderate

## CCCCC[C@H](O)/C=C/[C@H]1[C@H](O)CC(=O)[C@@H]1CCCCCCC(=O)O [PGE1, prostaglandin E1]
PGE1 receptor
  increase in metabolic rate at peak: 80%
  time of peak: approximately 1000 seconds
  time of return to base line metabolic rates: 4000 s

## CCCCCCCCCCCCCC(=O)O[C@@H]1[C@@H](C)[C@@]2(O)[C@@H](C=C(CO)C[C@]3(O)C(=O)C(C)=C[C@@H]23)[C@@H]2C(C)(C)[C@]12OC(C)=O [PMA, Phorbol myristate acetate]
MDCK cells [5]; 10 ng/ml PMA
  rise in metabolic rate at the peak: more than a doubling
  time of peak of metabolic rate: near an hour later
MDCK cells [6]; cover slip, data not shown
  metabolic rate upon addition of PMA: increase in metabolic rate
MDCK cells [7]; 10 ng/ml PMA
  steady-state potential reported by the sensor: dropped quickly to a minimum
  time to minimum of steady-state potential: about forty
MDCK cells [7]; by the end of the experiment
  steady-state potential after removal of PMA: returned to a value near its initial one

## CC(O)CO (stereo not drawn) [Propylene glycol]
[1]; in vivo
  In-Vivo Irritancy: Mild

## N=C(N)NC(=O)c1nc(Cl)c(N)nc1N [amiloride]
MDCK cells [5]; Canis lupus familiaris, MDCK, 1.5 mM amiloride, immediate, read-out: decrease in apparent metabolic rate vs. medium only
  inhibition at 1500 µM: 20%
MDCK cells [6]; Canis lupus familiaris, MDCK, 1.5 mM amiloride, gradual, read-out: increase of metabolic rate above medium only
  activation at 1500 µM: ≤ 16%
MDCK cells [6]; after 1.5 mM amiloride
  metabolic rate after exposure was ceased: returned to the original control value and then gradually continued to decline

## COc1cccc2c1C(=O)c1c(O)c3c(c(O)c1C2=O)C[C@@](O)(C(=O)CO)C[C@@H]3O[C@H]1C[C@H](N)[C@H](O)[C@H](C)O1 [doxorubicin]
MES-SA [8]
  sensitivity of MES-SA: sensitive
Dx5; 1 μM doxorubicin, Dx5, FIG. 45
  time at which decreased acidification rates are evident: > 50 h
Dx5
  time at which cytotoxicity is manifest: 2.5 h
MES-SA [9]; 1 μM doxorubicin, FIG. 45
  time at which decreased acidification rates are evident: 15 h
MES-SA [9]; 100 μM
  time at which cytotoxicity is manifest: 0.5 h

## CNC[C@H](O)c1ccc(O)c(O)c1 [epinephrine]
MDCK cells [5]; Canis lupus familiaris, MDCK, read-out: additional increase in metabolic rate on re-exposure
  activation at 3 µM: 7%
MDCK cells [5]; Canis lupus familiaris, MDCK, read-out: increase in metabolic rate
  activation at 3 µM: 20%
MDCK cells [5]; Canis lupus familiaris, MDCK, read-out: increase in metabolic rate over the control rate on re-exposure
  activation at 3 µM: 20%
MDCK cells [5]; Canis lupus familiaris, MDCK, read-out: metabolic rate above control rate after removal
  activation at 3 µM: 12%
MDCK cells [10]; read-out: decrease in metabolic rate vs. medium only
  inhibition at 208 µM: 3%
MDCK cells [10]; read-out: decrease in metabolic rate vs. rate immediately after removal of the higher concentration
  inhibition at 3 µM: 4.5%

## O=C[C@H](O)[C@@H](O)[C@H](O)[C@H](O)CO [glucose]
Proteus mirabilis
  change of pH: decreased the pH

## CCCCO [n-Butanol, 1-butanol]
[3]; [14]
  IC50: 20 mM
[1]; [13]
  In-Vivo Irritancy: Moderate

## CC[C@H](C)[C@@H]1NC(=O)[C@H](Cc2ccc(O)cc2)NC(=O)[C@@H](N)CSSC[C@@H](C(=O)N2CCC[C@H]2C(=O)N[C@@H](CC(C)C)C(=O)NCC(N)=O)NC(=O)[C@H](CC(N)=O)NC(=O)[C@H](CCC(N)=O)NC1=O [oxytocin]
MDCK cells [6]
  immediate change in metabolic rate: did not result in any immediate change
  recovery of metabolic rate after removal: 100%
  time to full recovery of metabolic rate after removal: up to 10 minutes
MDCK cells [6]; mdck, 1 µM
  gradual decrease of metabolic rate: up to 10%

## CC1(C)S[C@@H]2[C@H](NC(=O)Cc3ccccc3)C(=O)N2[C@H]1C(=O)O [penicillin]
E. coli
  response to antibiotic: do not respond

## Cn1c(=O)c2[nH]cnc2n(C)c1=O [theophylline]
MDCK cells [5]; Canis lupus familiaris, MDCK, read-out: increase in metabolic rate vs. control values on removal, after 111 μM theophylline
  activation at 111 µM: 28%
MDCK cells [5]; Canis lupus familiaris, MDCK, 111 μM theophylline (therapeutic level), read-out: decrease in metabolic rate
  inhibition at 111 µM: ~10%
MDCK cells [5]; Canis lupus familiaris, MDCK, 10 mM theophylline, read-out: decrease in metabolic rate vs. control value
  inhibition at 10000 µM: 47%
MDCK cells [5]; after removal of 10 mM theophylline
  time of return of metabolic rate to the control value: ten
MDCK cells [6]; Canis lupus familiaris, MDCK, initial, read-out: decrease in metabolic rate
  inhibition at 10000 µM: 59%
MDCK cells [6]; Canis lupus familiaris, MDCK, read-out: metabolic rate below the control value after gradual increase
  inhibition at 10000 µM: 48%
MDCK cells [6]; Canis lupus familiaris, MDCK, after 10 mM theophylline, read-out: increase of metabolic rate over the control value on removal
  activation at 10000 µM: 30%

## NC(N)=O [urea]
Proteus mirabilis
  change of pH: increases the pH

## CC(C)[C@@H]1NC(=O)[C@H](C)OC(=O)[C@@H](C(C)C)NC(=O)[C@@H](C(C)C)OC(=O)[C@H](C(C)C)NC(=O)[C@H](C)OC(=O)[C@@H](C(C)C)NC(=O)[C@@H](C(C)C)OC(=O)[C@H](C(C)C)NC(=O)[C@H](C)OC(=O)[C@@H](C(C)C)NC(=O)[C@@H](C(C)C)OC1=O [valinomycin]
L cells [11]
  peak metabolic rate relative to the initial rate: more than double the initial rate
  time of return of metabolic activity approximately to the initial value: ≤ 20 min
  time to peak of metabolic activity: four
L cells [12]
  fold induction at 100 µM: ~2.4

## NC(=O)CC[C@@H]1NC(=O)[C@H](Cc2ccccc2)NC(=O)[C@H](Cc2ccc(O)cc2)NC(=O)[C@@H](N)CSSC[C@@H](C(=O)N2CCC[C@H]2C(=O)N[C@@H](CCCN=C(N)N)C(=O)NCC(N)=O)NC(=O)[C@H](CC(N)=O)NC1=O [vasopressin]
MDCK cells [5]
  increase in metabolic rate over control values: 14%
  increase in metabolic rate over the rate in 0.1 μM vasopressin: 19%
  increase over the control rate value: 42%
MDCK cells [6]
  increase in metabolic rate: no increase in metabolic rate was observed

## CC[C@]1(O)C[C@H]2CN(CCc3c([nH]c4ccccc34)[C@@](C(=O)OC)(c3cc4c(cc3OC)N(C=O)[C@H]3[C@@](O)(C(=O)OC)[C@H](OC(C)=O)[C@]5(CC)C=CCN6CC[C@]43[C@@H]65)C2)C1 [vincristine]
MES-SA [8]
  sensitivity of MES-SA: sensitive
Dx5
  time at which cytotoxicity is manifest: 10 h
MES-SA [9]; 100 μM vincristine, FIG. 46
  time at which cytotoxicity is manifest: 5 h

## benzalkonium chloride [Benzalkonium Cl]
[3]; 30 μg/ml
  decrease of cellular metabolic rate between two successive administrations: real decrease of cellular metabolic rate between the two administrations
[3]; FIG. 12
  recovery of metabolic rate after washout of irritant: no recovery was obtained
[3]; [14]
  -log10 (MRD50): 4.1
[1]; [13]
  In-Vivo Irritancy: Severe

## polymyxin
E. coli
  response to antibiotic: do respond
